# Results reported in paper PMC3655264, “A Large-Scale Conformational Change Couples Membrane Recruitment to Cargo Binding in the AP2 Clathrin Adaptor Complex” (Cell, 2010).
# What was measured:
# Assay in all cases: SPR, PtdIns4,5P2-containing liposomes on L1 chip
# AP2 core [1] = molecular target: T1, AP2 core (Rattus norvegicus; Mus musculus; Homo sapiens, UniProt P18484+P63010+P84092, form not given, species not given); conditions: apparent, multivalent membrane binding
# T1 construct: gene Ap2a2; heterotetrameric 200 kDa core: alpha trunk-GST, His6-beta2 trunk, mu2 with myc tag (MEQKLI) in surface loop at residue 236, untagged sigma2; E. coli; with AP-2 complex subunit sigma
# Target sequence in this assay (P62743 whole entry): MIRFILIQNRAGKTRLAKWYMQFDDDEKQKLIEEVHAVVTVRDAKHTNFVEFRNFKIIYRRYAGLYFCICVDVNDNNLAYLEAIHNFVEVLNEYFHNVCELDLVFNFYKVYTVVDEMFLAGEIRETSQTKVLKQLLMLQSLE
# Target sequence in this assay (P18484 1-620): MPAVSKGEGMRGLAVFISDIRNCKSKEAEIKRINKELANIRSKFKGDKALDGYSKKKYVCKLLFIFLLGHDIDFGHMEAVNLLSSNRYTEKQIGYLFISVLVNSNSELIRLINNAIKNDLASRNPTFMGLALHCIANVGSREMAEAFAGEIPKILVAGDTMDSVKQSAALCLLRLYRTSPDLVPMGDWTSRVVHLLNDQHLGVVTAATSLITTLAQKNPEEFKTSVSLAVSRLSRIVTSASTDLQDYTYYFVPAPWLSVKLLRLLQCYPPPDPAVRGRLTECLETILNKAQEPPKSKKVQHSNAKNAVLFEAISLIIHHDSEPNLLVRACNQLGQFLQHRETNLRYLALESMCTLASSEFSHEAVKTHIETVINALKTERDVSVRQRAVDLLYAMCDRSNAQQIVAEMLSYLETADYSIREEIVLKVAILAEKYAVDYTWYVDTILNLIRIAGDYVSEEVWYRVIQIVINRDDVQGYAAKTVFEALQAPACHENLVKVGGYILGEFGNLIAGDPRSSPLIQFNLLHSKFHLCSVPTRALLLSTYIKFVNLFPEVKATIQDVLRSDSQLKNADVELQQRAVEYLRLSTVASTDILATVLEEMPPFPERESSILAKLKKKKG
# Target sequence in this assay (P84092 whole entry): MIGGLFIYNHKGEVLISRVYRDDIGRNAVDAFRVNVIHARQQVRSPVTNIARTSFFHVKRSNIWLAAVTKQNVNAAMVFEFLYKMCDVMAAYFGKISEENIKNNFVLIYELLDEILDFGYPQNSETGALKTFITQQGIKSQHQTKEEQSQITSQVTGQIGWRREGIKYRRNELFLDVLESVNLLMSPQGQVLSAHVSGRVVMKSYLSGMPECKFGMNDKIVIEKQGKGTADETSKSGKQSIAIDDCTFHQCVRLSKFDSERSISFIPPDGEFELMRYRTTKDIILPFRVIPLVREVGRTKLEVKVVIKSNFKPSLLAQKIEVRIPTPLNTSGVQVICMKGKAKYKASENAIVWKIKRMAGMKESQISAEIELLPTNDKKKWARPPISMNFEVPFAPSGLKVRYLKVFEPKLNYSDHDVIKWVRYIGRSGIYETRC
# Target sequence in this assay (P63010 1-592): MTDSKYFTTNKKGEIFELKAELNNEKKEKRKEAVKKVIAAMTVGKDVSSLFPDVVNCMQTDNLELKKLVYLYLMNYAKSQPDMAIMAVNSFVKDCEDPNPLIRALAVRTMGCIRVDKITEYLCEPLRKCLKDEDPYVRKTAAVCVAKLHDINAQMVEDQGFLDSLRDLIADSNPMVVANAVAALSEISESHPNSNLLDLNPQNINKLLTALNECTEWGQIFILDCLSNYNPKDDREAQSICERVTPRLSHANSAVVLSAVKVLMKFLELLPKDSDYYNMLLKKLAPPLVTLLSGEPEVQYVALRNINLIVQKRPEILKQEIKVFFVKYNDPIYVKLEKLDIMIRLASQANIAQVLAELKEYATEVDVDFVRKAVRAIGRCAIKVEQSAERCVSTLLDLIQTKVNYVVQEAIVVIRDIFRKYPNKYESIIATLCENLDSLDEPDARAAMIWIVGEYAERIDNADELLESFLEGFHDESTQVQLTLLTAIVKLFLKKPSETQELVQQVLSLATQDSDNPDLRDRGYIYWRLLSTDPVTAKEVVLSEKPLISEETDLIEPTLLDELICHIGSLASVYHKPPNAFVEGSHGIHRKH
# AP2 core [2] = molecular target: T1, AP2 core; conditions: apparent, multivalent membrane binding; five lysines of the second basic region (Lys330-Lys373) of C-mu2 to Glu, which five not told
# From the text: SPR, PtdIns4,5P2-containing liposomes on L1 chip on AP2 core | (5K>E) slightly weakens the binding of AP2 cores to PtdIns4,5P2-containing membranes
# Target sequence in this assay (P18484 1-620): as the sequence (P18484 1-620) above
# Target sequence in this assay (P84092 whole entry): as the sequence (P84092 whole entry) above
# Target sequence in this assay (P62743 whole entry, further chain): as the sequence (P62743 whole entry) above
# Target sequence in this assay (P63010 1-592): as the sequence (P63010 1-592) above
# AP2 core [3] = molecular target: T2, AP2 core (Rattus norvegicus; Mus musculus; Homo sapiens, UniProt P18484+P63010+P84092); conditions: apparent, multivalent membrane binding (sites on alpha, beta2, mu2); no cargo peptide; 10 mM Tris pH 8.7, 250 mM NaCl
# T2 construct: gene Ap2a2; heterotetrameric 200 kDa core: alpha trunk-GST, His6-beta2 trunk, mu2 with myc tag (MEQKLI) in surface loop at residue 236, untagged sigma2; E. coli; with AP-2 complex subunit sigma
# T2 sequence (P62743 whole entry): as the sequence (P62743 whole entry) above
# T2 sequence (P84092 whole entry): as the sequence (P84092 whole entry) above
# T2 sequence (P63010 1-592): as the sequence (P63010 1-592) above
# T2 sequence (P18484 1-620): as the sequence (P18484 1-620) above
substance,measurement,setting,value
"PtdIns4,5P2",Kd,AP2 core [1],30 µM
same,Kd,AP2 core [2],11 µM
same,Kd,AP2 core [3],7 µM
